Assay results as given in patent publication US10111437B2, “Substituted guanidines as fungicides” (Nippon Soda Co., Ltd., priority 2015, dated 2018).

Legend:
[1] = system: Apple scab fungus (Venturia inaequalis); experiment: Apple scab control test (foliar spray on apple seedlings); assay type: in vivo; settings: 125 ppm active ingredient, sprayed on apple seedlings (variety Orin) before inoculation, vs untreated
Description: The dilution was sprayed to apple seedlings (variety “Orin”, 3 to 4 leaf stage) grown in clay pots. […] The control value was calculated by the following equation. [formula]

[2] = system: Tomato late blight fungus (Phytophthora infestans); experiment: whole plant or invertebrate; assay type: in vivo; settings: foliar, 96 h, read-out: control value
[3] = system: wheat leaf rust fungus (Puccinia recondita); experiment: Wheat leaf rust control test (foliar spray on wheat seedlings); assay type: in vivo; settings: 240 h, 125 ppm active ingredient, sprayed on wheat seedlings (variety Norin 61) before inoculation, 10 days, vs untreated
[4] = system: cucumber gray mold fungus (Botrytis cinerea); experiment: Cucumber gray mold control test (foliar spray on cucumber seedlings); settings: in Cucumis sativus, 96 h, read-out: control value

Measured: pest or weed control at 125 ppm

N=C(N)c1ccc(OCCCCN2CCN(CCCCOc3ccc(C(=N)N)cc3)C2=N)cc1 [compound 6, 4-[4-[3-[4-(4-carbamimidoylphenoxy)butyl]-2-imino-imidazolidin-1-yl]butoxy]benzamidine]
≥ 75%: all assays above

N=C(N)NCCCCCCCN1CCN(CCCCCCCNC(=N)N)C1=N [compound 8, 1-[7-[3-(7-guanidinoheptyl)-2-imino-imidazolidin-1-yl]heptyl]guanidine]
≥ 75%: all assays above

N=C(NCCCCOc1ccc(C(=N)N)cc1)NCCCCOc1ccc(C(=N)N)cc1 [compound 10, 4-[4-[[N-[4-(4-carbamimidoylphenoxy)butyl]carbamimidoyl]amino]butoxy]benzamidine]
≥ 75%: all assays above

N=C(NCCCC#Cc1ccc(C(=N)N)cc1)NCCCC#Cc1ccc(C(=N)N)cc1 [compound 22, 4-[5-[[N-[5-(4-carbamimidoylphenyl)pent-4-ynyl]carbamimidoyl]amino]pent-1-ynyl]benzamidine]
≥ 75%: all assays above

N=C(N)NCCCCCCCn1ccn(CCCOc2ccc(C(=N)N)cc2)c1=N [compound 25, 4-[3-[3-(7-guanidinoheptyl)-2-imino-imidazol-1-yl]propoxy]benzamidine]
≥ 75%: all assays above

N=C(N)NCCCCCCCNC(=N)NCCCOc1ccc(C(=N)N)cc1 [compound 29, 4-[3-[[N-(7-guanidinoheptyl)carbamimidoyl]amino]propoxy]benzamidine]
≥ 75%: all assays above

N=C(N)NCCCCCCCNC(=N)NCCCCOc1ccc(C(=N)N)cn1 [compound 32, 6-(4-(3-(7-guanidinoheptyl)guanidino)butoxy)nicotinimidamide]
≥ 75%: all assays above

N=C(N)NCCCCCCCNC(=N)NCCCc1cc2cc(C(=N)N)ccc2o1 [compound 34, 2-(3-(3-(7-guanidinoheptyl)guanidino)propyl)benzofuran-5-carboximidamide]
≥ 75%: all assays above

N=C(N)c1ccc(OCCCCn2ccn(CCCOc3ccc(C(=N)N)cc3)c2=N)cc1 [compound 40, 4-[4-[3-[3-(4-carbamimidoylphenoxy)propyl]-2-imino-imidazol-1-yl]butoxy]benzamidine]
≥ 75%: all assays above

N=C(NCCCOc1ccc(C(=N)N)cc1)NCCCOc1ccc(C(=N)N)cc1 [compound 42, 4-[3-[[N-[3-(4-carbamimidoylphenoxy)propyl]carbamimidoyl]amino]propoxy]benzamidine]
≥ 75%: all assays above

N=C(N)NCCCCCCCCn1ccn(CCOc2ccc(C3=NCCCN3)cc2)c1=N [compound 270]
≥ 75%: [1] | [2] | [3]

N=C(N)NCCCCCCCCNC(=N)NCCOc1ccc2cc(C3=NCCCN3)ccc2c1 [compound 292]
≥ 75%: [1] | [2] | [3]
